tested on: MV-4-11 cells; test: Cell Viability Assay in MV-4-11 Cells; type: cell-based; conditions: Homo sapiens, MV4-11, 72 h
Outline: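 MV-4-11 cells at 7,000/well in IMDM with 10% FBS, exposed to compound for 72 h. Viability by CellTiter-Glo luminescence, normalized to DMSO as 100%, fitted with a four-parameter curve.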

SMILES	IC50 [nM]
NC(=O)/C=C/c1cccc2ccnc(N(C(=O)c3ccc(-n4nnc5cccnc54)cc3F)[C@@H]3CCCNC3)c12 [Example 320, N-[8-[(E)-3-amino-3-oxo-prop-1-enyl]-1-isoquinolyl]-2-fluoro-N-[(3R)-3-piperidyl]-4-(triazolo[4.5-b]pyridin-3-yl)benzamide]	5.6
Cc1cccc2ccnc(N(C(=O)c3ccc(C#N)cc3-c3cccnc3)[C@@H]3CCCNC3)c12 [Example 334, 4-cyano-N-(8-methyl-1-isoquinolyl)-N-[(3R)-3-piperidyl]-2-(3-pyridyl)benzamide]	> 10000

same assay, conditions: Homo sapiens, MV4-11, 72 h, MV-4-11 cells, 72 h, Cell-Titer Glo; read-out: IC50

SMILES	IC50 [nM]
COCCn1cc(-c2ccc(C(=O)N(c3nccc4cc(F)cc(C)c34)[C@@H]3CCCNC3)c(F)c2)nn1 [Example 850, 2-fluoro-N-(6-fluoro-8-methyl-1-isoquinolyl)-4-[1-(2-methoxyethyl)triazol-4-yl]-N-[(3R)-3-piperidyl]benzamide]	52
Cc1cccc2ccnc(N(C(=O)c3ccc(Nc4nccc(N5CCC(C)(CO)CC5)n4)cc3F)[C@@H]3CCCNC3)c12 [Example 963, 2-fluoro-4-({4-[4-(hydroxymethyl)-4-methylpiperidin-1-yl]pyrimidin-2-yl}amino)-N-(8-methylisoquinolin-1-yl)-N-[(3R)-piperidin-3-yl]benzamide]	12
COCc1cn(-c2ccc(C(=O)N(c3nccc4scc(C)c34)[C@@H]3CCCNC3)cc2)nn1 [Example 630, (R)-4-(4-(methoxymethyl)-1H-1,2,3-triazol-1-yl)-N-(3-methylthieno[3,2-c]pyridin-4-yl)-N-(piperidin-3-yl)benzamide]	160
Cc1cc(-c2cc3c(N(C(=O)c4ccc(-n5nnc6cccnc65)cc4F)[C@@H]4CCCNC4)nccc3s2)cc(C)n1 [Example 571, N-[2-(2,6-dimethyl-4-pyridyl)thieno[3,2-c]pyridin-4-yl]-2-fluoro-N-[(3R)-3-piperidyl]-4-(triazolo[4,5-b]pyridin-3-yl)benzamide]	63
Cc1csc2ccnc(N(C(=O)c3ccc(-c4cn(C)nn4)cc3F)[C@@H]3CCCNC3)c12 [Example 841, (R)-2-fluoro-4-(1-methyl-1H-1,2,3-triazol-4-yl)-N-(3-methylthieno[3,2-c]pyridin-4-yl)-N-(piperidin-3-yl)benzamide]	75
Cn1cc(-c2ccc(C(=O)N(c3nccc4cc(-c5ccncc5)sc34)[C@@H]3CCCNC3)c(F)c2)nn1 [Example 505, 2-fluoro-4-(1-methyltriazol-4-yl)-N-[(3R)-3-piperidyl]-N-[2-(4-pyridyl)thieno[2,3-c]pyridin-7-yl]benzamide]	250
Cc1ccc(Cl)c2ccnc(N(C(=O)c3ccc(-c4cn(C)nn4)cc3)[C@@H]3CCCNC3)c12 [Example 855, N-(5-chloro-8-methyl-1-isoquinolyl)-4-(1-methyltriazol-4-yl)-N-[(3R)-3-piperidyl]benzamide]	420
COC(=O)c1ccnc(Nc2ccc(C(=O)N(c3nccc4cccc(C)c34)[C@@H]3CCCNC3)c(F)c2)n1 [Example 400, methyl (R)-2-((3-fluoro-4-((8-methylisoquinolin-1-yl)(piperidin-3-yl)carbamoyl)phenyl)amino)pyrimidine-4-carboxylate]	2400
O=C(c1ccc(-n2nnc3cccnc32)cc1F)N(c1nccc2cc(-c3ncco3)ccc12)[C@@H]1CCCNC1 [Example 366, (R)-4-(3H-[1,2,3]triazolo[4,5-b]pyridin-3-yl)-2-fluoro-N-(6-(oxazol-2-yl)isoquinolin-1-yl)-N-(piperidin-3-yl)benzamide]	290
Cc1c(-c2ccc(C(=O)N(c3nccc4sc(-c5ccc(C(N)=O)cc5)cc34)[C@@H]3CCCNC3)c(F)c2)nnn1C [Example 819, N-[2-(4-carbamoylphenyl)thieno[3,2-c]yridine-4-yl]-4-(1,5-dimethyltriazol-4-yl)-2-fluoro-N-[(3R)-3-piperidyl]benzamide]	1000
COc1c(F)ccc2c(N(C(=O)c3ccc(-c4cn(C)nn4)cc3F)[C@@H]3CCCNC3)nccc12 [Example 874, 2-fluoro-N-(6-fluoro-5-methoxy-1-isoquinolyl)-4-(1-methyltriazol-4-yl)-N-[(3R)-3-piperidyl] benzamide]	4000
Cn1cc(-c2ccc(C(=O)N(c3nccc4sc(-c5ccc6[nH]c(=O)[nH]c6c5)cc34)[C@@H]3CCCNC3)c(F)c2)nn1 [Example 545]	5300
Cn1cc(-c2ccc(C(=O)N(c3nccc4cc(-c5ccc(CN)cc5)ccc34)[C@@H]3CCCNC3)c(F)c2)nn1 [Example 834, (R)—N-(6-(4-(aminomethyl)phenyl)isoquinolin-1-yl)-2-fluoro-4-(1-methyl-1H-1,2,3-triazol-4-yl)-N-(piperidin-3-yl)benzamide]	140

Other lines, results leading:

IC50 [nM]	SMILES
66	Cc1ccnc(Nc2ccc(C(=O)N(c3nccc4cccc(C)c34)[C@@H]3CCCNC3)c(F)c2)n1 [Example 319, (R)-2-fluoro-N-(8-methylisoquinolin-1-yl)-4-((4-methylpyrimidin-2-yl)amino)-N-(piperidin-3-yl)benzamide]
34	Cc1cc(Cl)cc2ccnc(N(C(=O)c3ccc(-c4nnn(C)c4C)cc3F)[C@@H]3CCCNC3)c12 [Example 763, (R)—N-(6-chloro-8-methylisoquinolin-1-yl)-4-(1,5-dimethyl-1H-1,2,3-triazol-4-yl)-2-fluoro-N-(piperidin-3-yl)benzamide]
1700	Cc1cccc2ccnc(N(C(=O)c3cccc(C#CCCC(=O)NC(C)CO)c3)[C@@H]3CCCNC3)c12 (stereo partly drawn) [Example 520, 3-(5-((1-hydroxypropan-2-yl)amino)-5-oxopent-1-yn-1-yl)-N-(8-methylisoquinolin-1-yl)-N—((R)-piperidin-3-yl)benzamide]
100	[2H]C([2H])([2H])c1nnc(-c2ccc(C(=O)N(c3nccc4cc(Cl)cc(C)c34)[C@@H]3CCCNC3)c(F)c2)s1 [Example 766, (R)—N-(6-chloro-8-methylisoquinolin-1-yl)-2-fluoro-4-(5-(methyl-d3)-1,3,4-thiadiazol-2-yl)-N-(piperidin-3-yl)benzamide]
4.2	Cc1cc(F)cc2ccnc(N(C(=O)c3ccc(-n4nnc5cccnc54)cc3F)[C@@H]3CCCNC3)c12 [Example 583, (R)-4-(3H-[1,2,3]triazolo[4,5-b]pyridin-3-yl)-2-fluoro-N-(6-fluoro-8-methylisoquinolin-1-yl)-N-(piperidin-3-yl)benzamide]
870	Cn1cc(-c2ccc(C(=O)N(c3nccc4cc(-c5cnn(CCO)c5)ccc34)[C@@H]3CCCNC3)c(F)c2)nn1 [Example 492, (R)-2-fluoro-N-(6-(1-(2-hydroxyethyl)-1H-pyrazol-4-yl)isoquinolin-1-yl)-4-(1-methyl-1H-1,2,3-triazol-4-yl)-N-(piperidin-3-yl)benzamide]
1600	CC(C)NS(=O)(=O)c1ccc(-c2cc3c(N(C(=O)c4ccc(-c5cn(C)nn5)cc4F)[C@@H]4CCCNC4)nccc3s2)cc1 [Example 537, 2-fluoro-N-[2-[4-(isopropylsulfamoyl)phenyl]thieno[3,2-c]pyridin-4-yl]-4-(1-methyltriazol-4-yl)-N-[(3R)-3-piperidyl]benzamide]
390	Cc1cccc2ccnc(N(C(=O)c3ccc(-c4cn(C)nn4)cc3Cl)[C@@H]3CCCNC3)c12 [Example 822, (R)-2-chloro-4-(1-methyl-1H-1,2,3-triazol-4-yl)-N-(8-methylisoquinolin-1-yl)-N-(piperidin-3-yl)benzamide]
930	Cn1cc(-c2ccc(C(=O)N(c3nccc4sc(-c5ccnc(N)n5)cc34)[C@@H]3CCCNC3)c(F)c2)nn1 [Example 484, N-[2-(2-aminopyrimidin-4-yl)thieno[3,2-c]pyridin-4-yl]-2-fluoro-4-(1-methyltriazol-4-yl)-N-[(3R)-3-piperidyl]benzamide]
90	Cc1cccc2ccnc(N(C(=O)c3ccc(C#N)c(-c4ccc(-c5ccncc5)cc4)c3)[C@@H]3CCCNC3)c12 [Example 330, 4-cyano-N-(8-methyl-1-isoquinolyl)-N-[(3R)-3-piperidyl]-3-[4-(4-pyridyl)phenyl]benzamide]
260	CCc1nnc(-c2ccc(C(=O)N(c3nccc4cc(Cl)cc(C)c34)[C@@H]3CCCNC3)nc2)s1 [Example 730, (R)—N-(6-chloro-8-methylisoquinolin-1-yl)-5-(5-ethyl-1,3,4-thiadiazol-2-yl)-N-(piperidin-3-yl)picolinamide]
45	Cc1cccc2ccnc(N(C(=O)c3ccc(Nc4nccc(N5CCCCC5)n4)cc3F)[C@@H]3CCCNC3)c12 [Example 578, (R)-2-fluoro-N-(8-methylisoquinolin-1-yl)-4-((4-(piperidin-1-yl)pyrimidin-2-yl)amino)-N-(piperidin-3-yl)benzamide]
300	N#Cc1ccc(-c2cc3c(N(C(=O)c4ccc(-n5nnc6cccnc65)cc4F)[C@@H]4CCCNC4)nccc3s2)cc1 [Example 387, N-[2-(4-cyanophenyl)thieno[3,2-c]pyridin-4-yl]-2-fluoro-N-[(3R)-3-piperidyl]-4-(triazolo[4,5-b]pyridin-3-yl)benzamide]
> 2000	O=C(c1ccc(Nc2ncccn2)cc1F)N(c1nccc2cc(F)ccc12)[C@@H]1CCCNC1 [Example 591, (R)-2-fluoro-N-(6-fluoroisoquinolin-1-yl)-N-(piperidin-3-yl)-4-(pyrimidin-2-ylamino)benzamide]
790	CNC(=O)/C=C/c1cc2c(N(C(=O)c3ccc(-n4nnc5cccnc54)cc3F)[C@@H]3CCCNC3)nccc2s1 [Example 525, 2-fluoro-N-[2-[(E)-3-(methylamino)-3-oxo-prop-1-enyl]thieno[3,2-c]pyridin-4-yl]-N-[(3R)-3-piperidyl]-4-(triazolo[4,5-b]pyridin-3-yl)benzamide]
1200	CC(C)Cn1cc(-c2cc3c(N(C(=O)c4ccc(-n5nnc6cccnc65)cc4F)[C@@H]4CCCNC4)nccc3s2)nn1 [Example 415, 2-fluoro-N-[2-(1-isobutyltriazol-4-yl)thieno[3,2-c]pyridin-4-yl]-N-[(3R)-3-piperidyl]-4-(triazolo[4,5-b]pyridin-3-yl)benzamide]
